O=c1[nH]c2ccccc2n1CCCN1CCC(n2c(=O)[nH]c3cc(Cl)ccc32)CC1
solubility (mole fraction)
Details	278.15 K	283.15 K	288.15 K	293.15 K	298.15 K	303.15 K	308.15 K	313.15 K	318.15 K
in DMAc	0.000805	0.000971	0.00116	0.00136	0.00158	0.00182	0.00208	0.00234	0.00262
in DMF	7.44e-05	9.91e-05	0.000131	0.00017	0.000223	0.000282	0.000369	0.000471	0.000575
in DMSO	0.000283	0.00034	0.000408	0.000489	0.000584	0.000698	0.000832	0.00099	0.00118
in acetonitrile	1.2e-07	1.85e-07	2.54e-07	3.43e-07	4.6e-07	6.68e-07	8.73e-07	1.07e-06	1.46e-06
in ethanol	8.55e-06	1.09e-05	1.47e-05	1.86e-05	2.28e-05	2.93e-05	3.6e-05	4.53e-05	5.35e-05
in ethylene glycol	1.11e-05	1.43e-05	1.84e-05	2.21e-05	2.93e-05	3.47e-05	4.43e-05	5.56e-05	6.6e-05
in isobutanol	1.05e-05	1.35e-05	1.8e-05	2.23e-05	2.83e-05	3.67e-05	4.58e-05	5.68e-05	7.17e-05
in isopropanol	7.95e-06	9.92e-06	1.45e-05	1.84e-05	2.27e-05	2.74e-05	3.45e-05	4.33e-05	5.42e-05
in methanol	8.19e-06	9.89e-06	1.21e-05	1.6e-05	2.07e-05	2.56e-05	3.17e-05	4.03e-05	4.9e-05
in n-butanol	1.23e-05	1.64e-05	2.19e-05	2.85e-05	3.66e-05	4.45e-05	5.47e-05	7.02e-05	8.57e-05
in n-propanol	1.18e-05	1.45e-05	1.9e-05	2.55e-05	3.25e-05	4.17e-05	5.05e-05	6.43e-05	7.85e-05
in water	8.77e-08	1.05e-07	1.38e-07	1.75e-07	2.22e-07	2.76e-07	3.35e-07	4.16e-07	5.11e-07
